Test system: ring-stage parasites
Assay: Parasite reduction ratio assay
Type: cell-based, Plasmodium falciparum
Method: Parasite reduction ratio assay. This was performed as previously described 9,10.
Briefly, asynchronous ring -stage parasites at 0.5% parasitemia and 2% haematocrit were exposed to compounds at 10 x EC50 of growth for five days with daily drug renewal. After each 24 h, a well from each treatment group was taken and washed three times in complete RPMI and final volume adjusted to 2% haematocrit. The washed culture was then aliquoted into a 96 well U-bottom plate and a 1:3 serial dilution into fresh uninfected RBCs was performed with four technical replicates for each time point. Plates were maintained in normal culturing conditions: media was replaced, and fresh RBCs given 1-2 times a week for three weeks, after which parasite growth was measured via lactate dehydrogenase assays. The number of viable parasites was calculated using the formula xn-1 +1, where x is the dilution factor and n is the number of wells that contain parasite growth. The viable parasite value was then expressed in log units and parasite reduction ratio was calculated as a decrease in […]

## CC(C)(Nc1ccc(Cl)c(S(=O)(=O)N2CCOCC2)c1)C(=O)Nc1ccc(F)c(Cl)c1 [W-991]
60 nM W-991, lag phases 0-24 h, 48-96 h
  lag phases: more than 24 h
10 x EC50 (60 nM W-991) for up to 5 days, then 21 days culture
  viable parasites after treatment: a proportion of parasites remained after a treatment period of 5 days
10xEC50: 75 nM CQ, 60 nM W-991
  killing profile: slow
Replicate 1, 24 Hours
  PRR calculations: log viability at Hours 24: 4.771
Replicate 1, 72 Hours
  PRR calculations: log viability at Hours 72: 3.34
Replicate 1, PRR calculations
  PRR: 1.431
Replicate 1, T=1
  log(parasite viability) +1: 4.771
Replicate 1, T=1, 1:3 dilution
  Parasite viability: 59049
Replicate 1, T=2
  log(parasite viability) +1: 3.34
Replicate 1, T=2, 1:3 dilution
  Parasite viability: 2187
Replicate 1, T=3
  log(parasite viability) +1: 3.34
Replicate 1, T=3, 1:3 dilution
  Parasite viability: 2187
Replicate 1, T=4
  log(parasite viability) +1: 3.34
Replicate 1, T=4, 1:3 dilution
  Parasite viability: 2187
Replicate 1, T=5
  log(parasite viability) +1: 2.863
Replicate 1, T=5, 1:3 dilution
  Parasite viability: 729
Replicate 2, Hours 72
  log(parasite viability) +1 used in PRR calculations: 3.34
Replicate 2, Hours 120
  log(parasite viability) +1 used in PRR calculations: 1.914
Replicate 2, PRR calculations
  PRR: 1.426
Replicate 2, T=1
  Parasite viability +1: 177148
  log(parasite viability) +1: 5.248
Replicate 2, T=1, 1:3 dilution
  Parasite viability: 177147
Replicate 2, T=2
  Parasite viability +1: 2188
  log(parasite viability) +1: 3.34
Replicate 2, T=2, 1:3 dilution
  Parasite viability: 2187
Replicate 2, T=3
  Parasite viability +1: 2188
  log(parasite viability) +1: 3.34
Replicate 2, T=3, 1:3 dilution
  Parasite viability: 2187
Replicate 2, T=4
  Parasite viability +1: 2188
  log(parasite viability) +1: 3.34
Replicate 2, T=4, 1:3 dilution
  Parasite viability: 2187
Replicate 2, T=5
  Parasite viability +1: 82
  log(parasite viability) +1: 1.914
Replicate 2, T=5, 1:3 dilution
  Parasite viability: 81
Replicate 3, T=1
  Parasite viability (1:3 dilution): 177147
  log(parasite viability) +1: 5.248
Replicate 3, T=2
  Parasite viability (1:3 dilution): 2187
Replicate 3, T=2 (48 hours in PRR calculations)
  log(parasite viability) +1: 3.34
Replicate 3, T=3
  Parasite viability (1:3 dilution): 729
Replicate 3, T=3 (72 hours in PRR calculations)
  log(parasite viability) +1: 2.863
Replicate 3, T=4
  Parasite viability (1:3 dilution): 19683
  log(parasite viability) +1: 4.294
Replicate 3, T=5
  Parasite viability (1:3 dilution): 81
Replicate 3, T=5 (120 hours in PRR calculations)
  log(parasite viability) +1: 1.914
Replicate 3, difference of log viability over 48 h (CQ 0-48 hours, W991 72-120 hours)
  PRR: 0.9495

From paper PMC11189555, “Aryl amino acetamides prevent Plasmodium falciparum ring development via targeting the lipid-transfer protein PfSTART1” (Nature Communications, 2024)
